Measurements: ChEMBL document CHEMBL1201862, “PubChem BioAssay data set” (2004)
Active and inactive are the calls of the source.

What was measured:
[1] = THP-1 cell cytotoxicity, dose response, cytotoxicity control for non-replicating M. tuberculosis project (AID 489025); type: functional
[2] = test system: Streptococcus; test: GAS UMAA2166 growth inhibition – luminescence, BacTiterGlo, counter-screen for streptokinase expression inhibitor project, dose response (AID 1915); type: functional, organism-based;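 note: potency for reduction of bacterial viability or growth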
[3] = Vero E6 cell cytotoxicity, dose response, cytotoxicity control for non-replicating M. tuberculosis project, secondary assay (AID 492998); type: functional, VeroE6; details: Vero C1008
[4] = test system: Streptococcus sp. 'group A'; test: Streptococcus pyogenes SK(-)GAS viability under kanamycin – luminescence, BacTiterGlo, confirmation, counter-screen for streptokinase expression inhibitor project, dose response (AID 1900); type: functional, organism-based
[5] = cells; type: functional
[6] = NIH-3T3 fibroblast cytotoxicity, dose response, cytotoxicity control, cell-based, fluorescence, Alamar Blue, secondary assay (AID 2327); type: functional;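 note: NIH-3T3 mouse fibroblasts cultured with fluconazole at 8 µg/mL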
[7] = molecular target: Dual specificity protein phosphatase 3 (Homo sapiens, UniProt P51452); test: SAR VHR1 Fluorescent Assay for In Vitro dose response studies Set 3. [Related pubchem assays (depositor defined):AID1654, AID1661, AID1878]; type: functional
Chain of Dual specificity protein phosphatase 3 (P51452 whole entry): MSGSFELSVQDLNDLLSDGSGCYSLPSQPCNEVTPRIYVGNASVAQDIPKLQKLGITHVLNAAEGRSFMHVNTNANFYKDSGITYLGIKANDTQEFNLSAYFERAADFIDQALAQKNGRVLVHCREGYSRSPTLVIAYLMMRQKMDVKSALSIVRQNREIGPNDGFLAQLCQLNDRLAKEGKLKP

[8] = HepG2 cell cytotoxicity, dose response, cytotoxicity control for non-replicating M. tuberculosis project (AID 489018); type: functional; details: Mycobacterium tuberculosis
[9] = fluconazole-exposed Candida albicans growth modulators – fluorescence, retest, confirmation (AID 2467); type: functional, cell-based
[10] = molecular target: T1, Estrogen receptor (Homo sapiens, UniProt P03372);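 note: potency for inhibiting coactivator peptide recruitment to the receptor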
T1 sequence (P03372 whole entry): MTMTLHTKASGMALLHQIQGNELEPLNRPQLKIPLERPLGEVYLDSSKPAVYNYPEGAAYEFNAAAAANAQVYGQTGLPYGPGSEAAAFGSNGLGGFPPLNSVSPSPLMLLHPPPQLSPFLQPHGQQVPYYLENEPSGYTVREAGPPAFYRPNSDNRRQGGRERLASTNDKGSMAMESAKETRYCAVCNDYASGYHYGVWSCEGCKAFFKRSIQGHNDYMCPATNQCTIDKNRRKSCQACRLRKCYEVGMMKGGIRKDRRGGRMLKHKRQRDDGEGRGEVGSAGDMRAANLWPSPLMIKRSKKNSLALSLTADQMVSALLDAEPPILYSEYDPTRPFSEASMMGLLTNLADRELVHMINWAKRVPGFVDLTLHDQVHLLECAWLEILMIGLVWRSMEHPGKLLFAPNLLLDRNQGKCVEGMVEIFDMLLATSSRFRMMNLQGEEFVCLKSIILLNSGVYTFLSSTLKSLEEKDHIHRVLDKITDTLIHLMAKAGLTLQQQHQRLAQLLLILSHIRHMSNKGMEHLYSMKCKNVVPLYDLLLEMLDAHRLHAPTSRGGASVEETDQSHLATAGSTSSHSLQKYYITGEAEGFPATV

[11] = Fluorescence polarization-based biochemical high throughput dose response assay for activators of the Protein Kinase A-R2B (PKA-R2B) complex. [Related pubchem assays (depositor defined):AID504700, AID504704, AID504796, AID504797]
[12] = Fluorescence polarization-based biochemical high throughput dose response assay for activators of the Protein Kinase A-R1A (PKA-R1A) complex. [Related pubchem assays (depositor defined):AID504704, AID504707, AID504799, AID504800]
[13] = test system: INS1; test: INS-1E mitochondrial potential rescue under cytokines – cell-based, JC-1 fluorescence ratio, dry powder, dose response (AID 488931); type: functional; details: Rattus norvegicus

SMILES: COc1cccc2sc(Nc3nnc(-c4ccc(F)cc4)o3)nc12
- CC50 [1]: 14.5 µM (active)
- EC50 [2]: 2.25 µM (active)
- CC50 [3]: 9.26 µM (active)
- EC50 [4]: 0.29 µM (active)
- IC50 [5]: 15.3 µM (active)
- EC50 [6]: > 160 µM (inconclusive)
- IC50 [7]: 7.3 µM (active)
- CC50 [8]: > 20 µM (active)
- EC50 [9]: 1.72 µM (active)
- IC50 [10]: 25 µM (active)

SMILES: CCCC(=O)Nc1ncnc2c1ncn2[C@@H]1O[C@@H]2COP(=O)(O)O[C@H]2[C@H]1OC(=O)CCC
- EC50 [11]: 5.38 µM (active)
- EC50 [12]: 4.48 µM (active)

SMILES: C[C@@H]1CN([C@@H](C)CO)C(=O)c2cccc(NC(=O)Nc3cccc4ccccc34)c2O[C@H]1CN(C)S(C)(=O)=O
- AC50 [13]: > 195 µM (inactive)
